Laboratory results published in patent US10160972B2, “Methods and materials for treating cancer” (Mayo Foundation for Medical Education and Research, priority 2012, dated 2018).

What was measured:
[1] = test system: ATF6 luciferase reporter in A498 cells
Method: (§6) For transient transfection, Caki1 and A498 cells were transfected using Lipofectamine 2000. Cells treated with DMSO vs. A939572 or infected using shSCD780 lentiviral constructs vs. NT control were harvested after 48 hrs using Promega's Dual Luciferase assay kit per the manufacturer's protocol and luciferase activity was measured using a Veritas Luminometer; reported as relative luminescence.
(§7) Caki1 and A498 cells transfected with an ATF6 luciferase reporter (p5xATF6-GL3) were treated with a 75 nM dose of A939572 or were infected with shSCD780. Resulting luminescence was measured after 48 hours.

[2] = test system: MDA-231 (triple negative) breast cancer cells; test: Cell number growth inhibition assay; format: cell-based, human
Method: (§1) A number of cancer cell lines were tested to determine whether SCD1 protein expression correlates with growth inhibition of an SCD1 inhibitor in human cancer cell lines.
(§2) Cells (20,000/ml) were plated in 12 well cell culture plates, allowed to attach and treated with the indicated dose of SCD1 inhibitor ([…]) or standard of care (gemcitabine). Cell number was counted using a Coulter Counter. As show in FIG. 7, the data are expressed as percent of DMSO control. Each value represents triplicates. Western analysis for SCD1 protein expression was performed on each cell line with beta-actin as the loading control.
(§3) The following cell lines were studied using a similar method as that described above.

A375 melanoma cells = test: Cell number growth inhibition assay; format: cell-based, human
Method: as §1, §2, §3

[3] = test system: LNCAP prostate cancer cells; test: Cell number growth inhibition assay; format: cell-based, human
Method: as §1, §2, §3

[4] = test system: A549 nonsmall cell lung cancer cells; test: Cell number growth inhibition assay; format: cell-based, human
Method: as §1, §2, §3

[5] = test system: ATF6 luciferase reporter in Caki1 cells
Method: as §6, §7

Caki1 ccRCC cell line = conditions: read-out: IC50, decrease in proliferation; Caki1, day 5
Method: (§4) ccRCC cell lines: RWV366T and KIJ265T (16) (both stage IV ccRCC patient tissue derived), A498, Caki1, Caki2, and ACHN (ATCC) and K347N, K355N, K359N, K360N, K365N, and K366N normal renal tissue derived mortal cells (NRE) were cultured in DMEM medium (Cellgro) containing 5% FBS (Hyclone) and 1× penicillin-streptomycin (Invitrogen) at 37° C. in humidified conditions with 5% CO2.
(§5) Cells were plated (0.5 or 1×10^5/well) in 24-well plates for proliferation or treatment assays, in triplicate. Cells were trypsinized (0.25%) and counted using a Coulter Particle Counter at specified time intervals. For SCD1 rescue assays, oleic acid-albumin was added to media at 5 μM. Drug stocks were prepared in DMSO. […] Temsirolimus dosing was performed as described in the text. Soft agar cultures were prepared by diluting 2× growth medium 1:1 in 1.5% Seaplaque®GTG® agarose, with 500 cells/plate in 60 mm culture dishes. Colonies were stained with Giemsa (LabChem Inc.) and counted after 3 wks. Cell images were obtained with an OlympusIX71 microscope at 20× magnification.

Caki2 ccRCC cell line = conditions: read-out: IC50, decrease in proliferation; Caki2, day 5
Method: as §4, §5

ACHN ccRCC cell line = conditions: read-out: IC50, decrease in proliferation, day 5
Method: as §4, §5

A498 ccRCC cell line = conditions: read-out: IC50, decrease in proliferation; A498, day 5
Method: as §4, §5

A498 ccRCC xenografts [6] = test: Western blot of CHOP in xenograft tumor tissue; format: in vivo, athymic nude (nu/nu) mice; conditions: normalized to β-actin, tumor tissue samples
Method: Protein extracts, electrophoresis, and membrane transfers were prepared as previously described (Copland J A, Marlow L A, Kurakata S, Fujiwara K, Wong A K, Kreinest P A, et al. Novel highaffinity PPARgamma agonist alone and in combination with paclitaxel inhibits human anaplastic thyroid carcinoma tumor growth via p21WAF1/CIP1. Oncogene. 2006; 25:2304-17). Primary antibodies included SCD1, PARP, DDIT3, BiP, sXBP1, and β-actin. A Supersignal chemiluminescent kit was used to perform detection.

A498 ccRCC xenografts [7] = test: IHC analysis of resected xenograft tumors
Method: The TMAs were mounted on slides from paraffin-embedded blocks according to IHC procedure and samples were blocked with Diluent that contained Background Reducing Components (Dakocytomation) for 30 min and then probed for SCD1, Ki67, Caspase-3, CD31, phospho-mTOR, DDIT3, and XBP1. […] Stain scoring was done using algorithms generated with Imagescope software created by a histologist. H-scores were calculated based upon signal intensity (0-3+) using the formula: [(1+%×1)+(2+%×2)+(3+%×3)], intensity (I)-scores were calculated by dividing signal intensity by area, and nuclear (N)-scores were calculated by dividing % positive nuclei by total nuclei examined per area. Cases where insufficient tumor tissue presented were excluded from the study. 20× images were obtained using Scanscope XT and Imagescope software.
IHC analysis of tumors resected from each treatment group was analyzed for proliferation, angiogenesis, and cell death (FIG. 6B).

**Q.** For CNC(=O)c1cccc(NC(=O)N2CCC(Oc3ccccc3Cl)CC2)c1 [A939572], which “reporter activation with addition of OA-BSA” value ([1]; A498, + OA-BSA) is on record?
**A.** significantly reduced reporter activation

**Q.** What about the “luciferase activity, fold change induction” value ([1]; A498, +BSA, 75 nM A939572 or shSCD780, 48 hours, vs DMSO and NT controls) of the same compound?
**A.** 3.8 fold change

**Q.** What about the growth inhibition [2] of the same compound?
**A.** growth inhibited in a dose dependent fashion

**Q.** And the growth inhibition (A375 melanoma cells)?
**A.** growth inhibited in a dose dependent fashion

**Q.** And the IC50 (A375 melanoma cells; read-out: estimated IC50 concentration, growth inhibition)?
**A.** ~50 nM

**Q.** And the growth inhibition [3]?
**A.** growth inhibited in a dose dependent fashion

**Q.** What about the growth inhibition [4] of the same compound?
**A.** growth inhibited in a dose dependent fashion

**Q.** And the “reporter activation with addition of OA-BSA” value ([5]; Caki1, + OA-BSA)?
**A.** significantly reduced reporter activation

**Q.** And the “luciferase activity, fold change induction” value ([5]; Caki1, +BSA, 75 nM A939572 or shSCD780, 48 hours, vs DMSO and NT controls)?
**A.** 1.6 fold change

**Q.** What about the IC50 (Caki1 ccRCC cell line) of the same compound?
**A.** 65 nM

**Q.** What about the IC50 (Caki2 ccRCC cell line) of the same compound?
**A.** 65 nM

**Q.** And the IC50 (ACHN ccRCC cell line)?
**A.** 6 nM

**Q.** And the IC50 (A498 ccRCC cell line)?
**A.** 50 nM

**Q.** What about the “CHOP expression (ER stress)” value (A498 ccRCC xenografts [6]) of the same compound?
**A.** Increased expression of CHOP

**Q.** What about the “cell death, cleaved caspase-3 (CC3)” value (A498 ccRCC xenografts [7]; vs placebo / other groups) of the same compound?
**A.** moderate increase

**Q.** And the “proliferation, percent positivity of nuclear Ki67 staining” value (A498 ccRCC xenografts [7]; vs placebo control)?
**A.** decreased proliferation
